Assay results reported in patent US20240247031A1, “COMPOSITION FOR TREATING CANCER CONTAINING TELOMERASE-TARGETING GNRH ANTAGONIST-DERIVED PEPTIDE HS1002” (Research & Business Foundation Sungkyunkwan University, priority 2023, published 2024).

Key:
[1] = tested on: c-Myc; assay: c-Myc protein expression and transcriptional activity in LNCaP (FIG. 12); format: cell-based, human; settings: 300 μM, 72 h
Protocol: The cells and tumor tissues were homogenized using the PRO-PREP™ extraction solution (iNtRON Biotechnology, Seongnam, Korea). After incubation, the homogenate was centrifuged at 16,000×g for 20 min at 4° C., and the supernatant was collected for western blot analysis. Subsequently, an equivalent quantity of protein was separated using sodium dodecyl sulfate polyacrylamide gels and transferred onto a polyvinylidene difluoride (PVDF) membrane. The PVDF membranes were incubated with the primary antibodies overnight at 4° C., washed with tris-buffered saline, and then incubated with HRP-conjugated anti-mouse or anti-rabbit antibodies. The bands were visualized using a ChemiDoc imaging system (Bio-Rad, Hercules, CA, USA). The band intensities were determined using an Image J software.
The c-Myc Transcription Factor Assay Kit (Cat. ab207200, abcam) was used to quantify the activation of c-Myc in nuclear extracts after peptide treatment. […] The protein concentration was quantified using the Bradford method (798 μL Bradford, 200 μL water, and 2 μL of the protein) at a wavelength of 595 nm (SmartSpecPlus; BioRad). For the detection of c-Myc transcriptional activity, 5 μg of the isolated nuclear extracts were used, and the absorbance was measured on a spectrophotometer (Synergy HT; BioTek) at OD 450 nm. […]

[2] = tested on: HEK293-Vector cells; assay: Intracellular calcium flux assay, mock-transfected cells; format: cell-based, human; settings: 1 and 10 nM
Protocol: Human embryonic kidney cell line (HEK293), and mouse cancer cell lines (MC38, 4T1) were purchased from the American Type Culture Collection (Manassas, VA, USA). All cell lines were grown in Dulbecco's Modified Essential Medium (DMEM) or Roswell Park Memorial Institute (RPMI) 1640 supplemented with 10% FBS, 100 U/mL penicillin, and 100 μg/mL streptomycin (WelGENE, Daegu, South Korea) in a humidified atmosphere of 5% CO2 at 37° C. To obtain GnRHR-overexpressing HEK293 (HEK293-GnRHR) cells, transfection of the pCMV-AC-GFP-GnRHR vector (HEK293-GnRHR) was performed using Lipofectamine™ 3000 according to the manufacturer's instructions (Cat. 100022052, Thermo Fisher Scientific, Waltham, MA, USA). Colonies of geneticin-resistant cells were selected by adding G418 (800 μg/mL, Sigma) to the culture medium. The HEK293-pCMV-AC-GFP vector (HEK293-Vector) cells were used as a mock-transfection group.
Intracellular calcium mobilization was measured using the Calcium Flux Assay Kit (Cat. ab233472, abcam) in response to different concentrations of each peptide. The percentage increase was calculated relative to basal fluorescence intensity. The experiment was performed in triplicate.

[3] = tested on: tumor-infiltrating CD45+ and CD8+ cells in MC38 tumor; assay: Flow cytometry of tumor infiltrating leukocytes in MC38 tumors (FIG. 20); format: in vivo, mouse; settings: MC38 tumor tissue, vs vehicle
Text: A mouse tumor dissociation kit (Cat. 130-096-730, Miltenyi Biotec, Bergisch Gladbach, Germany) was used for tumor digestion according to the manufacturer's protocol. Briefly, the tumor was cut into small fragments with RPMI 1640 containing enzymes D, R, and A. After filtration through a 70 μm cell strainer, red blood cells were removed using RBC lysis buffer (Cat. 420301, BioLegend, San Diego, CA, USA). The acquired single-cell suspension was used for further analysis. For analysis of intracellular cytokines, the cell suspension was incubated in the presence of a cell stimulation cocktail (with a protein transport inhibitor) (Cat. 00-4975-93, Invitrogen, eBioscience) for 5 h and subjected to fixation and permeabilization using an intracellular fixation and permeabilization buffer set (Cat. 88-8824-00, Thermo Fisher) according to the manufacturer's protocol. Following the staining process, samples were analyzed with Novocyte (ACEA Biosciences, San Diego, CA, USA).
CTLs are the key mediators of granzyme- and perforin-mediated cancer cell destruction during cancer immunosurveillance and immunotherapy. […] To investigate the effect of HS1002 on tumor-infiltrating CD8^+ T cells in MC38 tumor tissue, flow cytometric analysis was used. Flow cytometric analysis confirmed that HS1002 elevated the total number of tumor-infiltrating CD45+ cells and the production of granzyme B and IFN-γ in CD8^+ cells and in MC38 tumor tissue (FIG. 20A). To assess the effect of HS1002 on immune response-related gene expression in a syngeneic mouse model, gene expression analysis was conducted by profiling the transcriptomes of the tumor. A total of 49,196 genes were analyzed in tumor tissues, and genes with a fold change exceeding 1.5 were included for further analysis with statistical significance at p<0.05.

[4] = tested on: MC38 tumor; assay: MC38 syngeneic mouse tumor model (FIG. 19); format: in vivo; settings: 1 mg/kg s.c. every day
Protocol: All mice were purchased from Central Lab Animal Inc. ([…]). They were raised in a 12 h environmental light/dark cycle with controlled temperature (22±2° C.) conditions. The experimental protocol was approved by the Sungkyunkwan University Institutional Animal Care and Use Committee (SKKUIACUC2021-06-27-1, SKKUIACUC2023-01-07-1). For the establishment of tumors, LNCaP (1×10^7), MC38 (2×10^5), and 4T1 (1×10^6) suspended in serum-free media containing 50% Matrigel was subcutaneously administered in the right flank of mice, respectively. The tumor volumes (V) were calculated using a caliper and the standard equation: V (mm^3)=0.52 (ab^2) (a=length, b=width). Once the tumor reached 100-200 mm^3, the mice were randomly divided into different groups and subcutaneously injected with a vehicle or each peptide every day.
The sequences of the TERT peptide are highly conserved in human and mouse, indicating its potential translatability to mouse cancer. […] Hot tumors are generally more responsive to immunotherapy. In contrast, ‘Cold’ tumors such as the 4T1 tumor model lack infiltrating T cells and often have a low tumor mutational burden. Without a pre-existing adaptive immune response, cold tumors are insensitive to immunotherapy. […]

CCNC(=O)[C@@H]1CCCN1C(=O)[C@@H](NC(=O)[C@H](Cc1ccccc1)NC(=O)[C@H](CCCNC(=N)N)NC(=O)[C@H](CC(C)C)NC(=O)[C@H](CCCNC(=N)N)NC(=O)[C@H](Cc1ccc(O)cc1)NC(=O)[C@H](CO)NC(=O)[C@H](Cc1c[nH]c2ccccc12)NC(=O)[C@H](Cc1c[nH]cn1)NC(=O)[C@@H]1CCC(=O)N1)[C@@H](C)CC [HS1002]
c-Myc protein expression [1]: significantly decreased
c-Myc transcriptional activity [1]: significantly decreased
calcium flux [2]: increased calcium flux
production of IFN-γ in CD8+ cells [3]: elevated
production of granzyme B in CD8+ cells [3]: elevated
total number of tumor-infiltrating CD45+ cells [3]: elevated
tumor volume [4]: diminished
tumor weight [4]: diminished
